Measurements reported in patent US12065443B2, “Compounds and pharmaceutical compositions thereof for the treatment of diseases” (priority 2017, dated 2024).

Experiments:
Test in all cases: biochemical
SIK1 = target: T1, SIK1 (Homo sapiens, UniProt P57059); conditions: 33P radioactive SIK kinase assay, AMARA peptide, 10 μM ATP; read-out: SIK1 IC50
T1 construct: purchased Carna Biosciences 02-131
How it was run: (§1)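 Radiometric assay: SIK1, SIK2 or SIK3 phosphorylates AMARA peptide using unlabelled plus [^33P]-γ-ATP, reaction started by ATP addition. Stopped with 150 mM phosphoric acid, filter-harvested and washed; incorporated ^33P counted by scintillation. Controls: 1% DMSO and 10 μM staurosporine final.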

SIK2 = target: T2, SIK2 (Homo sapiens, UniProt Q9H0K1); conditions: 33P radioactive SIK kinase assay, AMARA peptide, 10 μM ATP
T2 construct: purchased ThermoFisher Scientific PV4792
How it was run: as §1

SIK3 = target: T3, SIK3 (Homo sapiens, UniProt Q9Y2K2)
T3 construct: purchased SignalChem S12-11G-100
How it was run: as §1

T1 sequence (P57059 whole entry): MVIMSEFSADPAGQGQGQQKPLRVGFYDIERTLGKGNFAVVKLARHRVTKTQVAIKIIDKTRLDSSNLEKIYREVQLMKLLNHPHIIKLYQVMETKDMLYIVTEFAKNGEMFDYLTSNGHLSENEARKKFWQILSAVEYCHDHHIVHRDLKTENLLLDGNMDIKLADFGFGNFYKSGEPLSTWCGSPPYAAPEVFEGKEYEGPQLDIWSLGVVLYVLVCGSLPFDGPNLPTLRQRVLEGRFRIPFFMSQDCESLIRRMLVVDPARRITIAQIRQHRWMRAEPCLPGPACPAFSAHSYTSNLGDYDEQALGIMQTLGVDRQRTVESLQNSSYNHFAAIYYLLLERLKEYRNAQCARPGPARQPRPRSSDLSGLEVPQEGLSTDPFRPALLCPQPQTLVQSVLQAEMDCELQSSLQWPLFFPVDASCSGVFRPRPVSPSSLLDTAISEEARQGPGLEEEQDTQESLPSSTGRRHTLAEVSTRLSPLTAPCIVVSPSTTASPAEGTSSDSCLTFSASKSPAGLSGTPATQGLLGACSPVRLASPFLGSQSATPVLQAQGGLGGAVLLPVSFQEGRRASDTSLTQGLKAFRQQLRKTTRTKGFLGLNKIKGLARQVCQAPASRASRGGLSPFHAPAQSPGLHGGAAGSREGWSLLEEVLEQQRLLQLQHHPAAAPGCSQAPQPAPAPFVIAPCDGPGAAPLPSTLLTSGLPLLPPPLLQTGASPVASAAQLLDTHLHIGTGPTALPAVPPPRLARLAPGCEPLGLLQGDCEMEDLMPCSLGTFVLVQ
T3 sequence (Q9Y2K2 whole entry): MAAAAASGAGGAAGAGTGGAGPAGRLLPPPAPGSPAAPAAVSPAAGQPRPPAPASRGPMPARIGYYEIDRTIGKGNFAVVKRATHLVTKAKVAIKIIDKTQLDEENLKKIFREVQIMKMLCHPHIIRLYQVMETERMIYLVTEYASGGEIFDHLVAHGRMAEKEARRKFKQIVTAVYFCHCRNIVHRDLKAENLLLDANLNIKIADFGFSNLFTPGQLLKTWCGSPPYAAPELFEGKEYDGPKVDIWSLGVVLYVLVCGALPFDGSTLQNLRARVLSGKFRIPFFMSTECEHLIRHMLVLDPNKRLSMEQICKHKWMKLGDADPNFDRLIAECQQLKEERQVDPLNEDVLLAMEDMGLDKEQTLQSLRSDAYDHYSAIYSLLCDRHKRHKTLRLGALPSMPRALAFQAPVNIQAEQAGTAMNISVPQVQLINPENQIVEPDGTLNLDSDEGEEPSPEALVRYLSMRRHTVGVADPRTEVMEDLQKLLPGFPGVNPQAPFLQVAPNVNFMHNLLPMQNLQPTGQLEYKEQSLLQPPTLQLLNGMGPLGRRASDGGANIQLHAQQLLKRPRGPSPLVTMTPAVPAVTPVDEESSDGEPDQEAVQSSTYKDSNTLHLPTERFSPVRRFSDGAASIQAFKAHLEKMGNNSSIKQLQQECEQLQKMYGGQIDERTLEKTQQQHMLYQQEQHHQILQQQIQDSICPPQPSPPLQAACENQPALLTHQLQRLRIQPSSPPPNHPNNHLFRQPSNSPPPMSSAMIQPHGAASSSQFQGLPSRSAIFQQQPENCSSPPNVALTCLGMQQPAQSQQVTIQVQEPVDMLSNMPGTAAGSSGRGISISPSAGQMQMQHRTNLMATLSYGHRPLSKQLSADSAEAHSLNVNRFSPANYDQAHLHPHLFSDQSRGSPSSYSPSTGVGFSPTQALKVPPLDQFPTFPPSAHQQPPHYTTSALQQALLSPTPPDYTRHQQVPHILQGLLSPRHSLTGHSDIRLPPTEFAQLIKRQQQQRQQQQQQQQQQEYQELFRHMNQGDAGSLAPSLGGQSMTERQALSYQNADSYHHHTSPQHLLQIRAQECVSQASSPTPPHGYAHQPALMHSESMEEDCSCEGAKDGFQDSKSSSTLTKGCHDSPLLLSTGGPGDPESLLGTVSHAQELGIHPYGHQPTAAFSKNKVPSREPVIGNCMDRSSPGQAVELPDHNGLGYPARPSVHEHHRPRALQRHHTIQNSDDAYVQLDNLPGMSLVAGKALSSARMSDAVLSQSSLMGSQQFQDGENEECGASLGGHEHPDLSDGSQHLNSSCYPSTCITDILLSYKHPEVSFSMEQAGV
T2 sequence (Q9H0K1 whole entry): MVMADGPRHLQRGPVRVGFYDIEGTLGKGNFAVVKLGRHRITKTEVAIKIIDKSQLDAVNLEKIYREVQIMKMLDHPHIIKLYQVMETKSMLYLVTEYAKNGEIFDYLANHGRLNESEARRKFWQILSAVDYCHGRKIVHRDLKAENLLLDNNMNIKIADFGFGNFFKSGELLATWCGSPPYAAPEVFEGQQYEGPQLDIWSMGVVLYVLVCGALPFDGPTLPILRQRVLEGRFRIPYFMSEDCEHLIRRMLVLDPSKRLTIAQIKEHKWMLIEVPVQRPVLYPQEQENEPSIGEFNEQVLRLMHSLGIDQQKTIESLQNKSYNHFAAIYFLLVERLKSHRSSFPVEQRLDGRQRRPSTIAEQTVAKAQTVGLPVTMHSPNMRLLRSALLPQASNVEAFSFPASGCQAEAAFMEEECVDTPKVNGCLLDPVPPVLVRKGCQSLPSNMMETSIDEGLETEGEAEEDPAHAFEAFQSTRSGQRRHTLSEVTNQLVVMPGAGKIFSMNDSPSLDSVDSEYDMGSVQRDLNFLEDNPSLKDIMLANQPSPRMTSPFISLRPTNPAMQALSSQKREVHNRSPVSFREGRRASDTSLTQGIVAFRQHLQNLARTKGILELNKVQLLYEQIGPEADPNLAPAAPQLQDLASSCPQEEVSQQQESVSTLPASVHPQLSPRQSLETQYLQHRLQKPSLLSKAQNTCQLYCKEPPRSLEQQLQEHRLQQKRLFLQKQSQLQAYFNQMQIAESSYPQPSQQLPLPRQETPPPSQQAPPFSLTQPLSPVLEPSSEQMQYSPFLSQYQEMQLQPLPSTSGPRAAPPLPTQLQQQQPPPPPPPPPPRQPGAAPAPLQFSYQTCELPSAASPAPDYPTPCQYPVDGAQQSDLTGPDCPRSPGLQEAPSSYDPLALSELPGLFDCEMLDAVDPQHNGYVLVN

SMILES | IC50 (SIK1) [nM] | IC50 (SIK2) [nM] | IC50 (SIK3) [nM]
COc1cc(-n2cnc3cc(-c4cnn(C)c4)ccc32)cc(OC)c1C(=O)N1CC(OCc2ccccc2)C1 [compound 186, (3-benzyloxyazetidin-1-yl)-[2,6-dimethoxy-4-[5-(1-methylpyrazol-4-yl)benzimidazol-1-yl]phenyl]methanone] | 10 to 100 | 100 to 500 | 100 to 500
COc1cc(-n2cnc3cc(-c4cnn(C)c4)ccc32)cc(OC)c1C(=O)N1CC(N2CCOCC2)C1 [compound 188, [2,6-dimethoxy-4-[5-(1-methylpyrazol-4-yl)benzimidazol-1-yl]phenyl]-(3-morpholinoazetidin-1-yl)methanone] | > 500 | > 500 | > 500
COc1cc(-n2cnc3cc(-c4cnn(C)c4)ccc32)cc(OC)c1C(=O)N1C(C)CC1(C)C (stereo not drawn) [compound 189, [2,6-dimethoxy-4-[5-(1-methylpyrazol-4-yl)benzimidazol-1-yl]phenyl]-(2,2,4-trimethylazetidin-1-yl)methanone] | > 500 | > 500 | > 500
COc1cc(-n2cnc3cc(-c4cnn(C)c4)ccc32)cc(OC)c1C(=O)N1CC(C2CCOCC2)C1 [compound 191, [2,6-dimethoxy-4-[5-(1-methylpyrazol-4-yl)benzimidazol-1-yl]phenyl]-(3-tetrahydropyran-4-ylazetidin-1-yl)methanone] | 100 to 500 | 100 to 500 | 100 to 500
COc1cc(-n2cnc3cc(-c4cnn(C)c4)ccc32)cc(OC)c1C(=O)N1CC2(COC2)C1 [compound 194] | 100 to 500 | 10 to 100 | 100 to 500

Second part, the molecule after the results:

IC50 (SIK1) [nM] | IC50 (SIK2) [nM] | IC50 (SIK3) [nM] | SMILES
> 500 | > 500 | > 500 | COc1cc(-n2cnc3cc(-c4cnn(C)c4)ccc32)cc(OC)c1C(=O)N1CCC1C (stereo not drawn) [compound 182, [2,6-dimethoxy-4-[5-(1-methylpyrazol-4-yl)benzimidazol-1-yl]phenyl]-(2-methylazetidin-1-yl)methanone]
100 to 500 | 100 to 500 | 100 to 500 | COc1cc(-n2cnc3cc(-c4cnn(C)c4)ccc32)cc(OC)c1C(=O)N1CC(CO)C1 [compound 183, [2,6-dimethoxy-4-[5-(1-methylpyrazol-4-yl)benzimidazol-1-yl]phenyl]-[3-(hydroxymethyl)azetidin-1-yl]methanone]
100 to 500 | 100 to 500 | 100 to 500 | COc1cc(-n2cnc3cc(-c4cnn(C)c4)ccc32)cc(OC)c1C(=O)N1CC(O)C1 [compound 184, [2,6-dimethoxy-4-[5-(1-methylpyrazol-4-yl)benzimidazol-1-yl]phenyl]-(3-hydroxyazetidin-1-yl)methanone]
100 to 500 | 100 to 500 | > 500 | COc1cc(-n2cnc3cc(-c4cnn(C)c4)ccc32)cc(OC)c1C(=O)N1CC(N(C)C)C1 [compound 185, [2,6-dimethoxy-4-[5-(1-methylpyrazol-4-yl)benzimidazol-1-yl]phenyl]-[3-(dimethylamino)azetidin-1-yl]methanone]
> 500 | > 500 | > 500 | COc1cc(-n2cnc3cc(-c4cnn(C)c4)ccc32)cc(OC)c1C(=O)N1CCC1c1ccccc1 (stereo not drawn) [compound 187, [2,6-dimethoxy-4-[5-(1-methylpyrazol-4-yl)benzimidazol-1-yl]phenyl]-(2-phenylazetidin-1-yl)methanone]
10 to 100 | 10 to 100 | 100 to 500 | COc1cc(-n2cnc3cc(-c4cnn(C)c4)ccc32)cc(OC)c1C(=O)N1CC(OC)C1 [compound 190, [2,6-dimethoxy-4-[5-(1-methylpyrazol-4-yl)benzimidazol-1-yl]phenyl]-(3-methoxyazetidin-1-yl)methanone]
> 500 | > 500 | > 500 | COc1cc(-n2cnc3cc(-c4cnn(C)c4)ccc32)cc(OC)c1C(=O)N1CCC1CO (stereo not drawn) [compound 193, [2,6-dimethoxy-4-[5-(1-methylpyrazol-4-yl)benzimidazol-1-yl]phenyl]-[2-(hydroxymethyl)azetidin-1-yl]methanone]
